Assay results published in patent US6737383B1, “Herbicidal oxadiazolidines” (priority 1999, dated 2004).

Assays:
wild oat = test: Test B pre/postemergence wild oat; type: in vivo, Avena fatua
Procedure, shortened: (§1)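 Herbicidal effect was estimated by eye on a ten-point control scale after plants spent twelve to sixteen days in a greenhouse following soil or foliar treatment. Foliar sprays targeted plants at one to four leaves; all doses were formulated in a non-phytotoxic solvent with surfactant.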

rape = test: Test B pre/postemergence rape; type: in vivo, Brassica napus
Procedure, shortened: as §1

smallflower flatsedge = test: Test B flood test smallflower flatsedge; type: in vivo, Cyperus difformis
Procedure, shortened: (§2)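 Each value is a visual injury score relative to controls, with 10 meaning complete control and 0 no effect. Evaluation took place twelve to sixteen days after the 2-leaf-stage plants were treated and kept in the greenhouse.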

bedstraw = test: Test B pre/postemergence bedstraw; type: in vivo, Galium aparine; settings: Preemergence; for Plant response rating, Bedstraw: scale of 0 to 10 where 0 is no effect and 10 is complete control; for Bedstraw plant response rating: scale 0 to 10, 0 is no effect, 10 is complete control
Procedure, shortened: as §1

velvetleaf = test: Test B pre/postemergence velvetleaf; type: in vivo, Abutilon theophrasti
Procedure, shortened: as §1

wheat = test: Test B pre/postemergence wheat; type: in vivo, Triticum aestivum
Procedure, shortened: as §1

corn = test: Test B pre/postemergence corn; type: in vivo, Zea mays
Procedure, shortened: as §1

surinam grass = test: Test B pre/postemergence surinam grass; type: in vivo, Brachiaria decumbens
Procedure, shortened: as §1

blackgrass = test: Test B pre/postemergence blackgrass; type: in vivo, Alopecurus myosuroides; settings: for Plant response rating, Blackgrass: scale of 0 to 10 where 0 is no effect and 10 is complete control
Procedure, shortened: as §1

giant foxtail = test: Test B pre/postemergence giant foxtail; type: in vivo, Setaria faberii
Procedure, shortened: as §1

duck salad = test: Test B flood test duck salad; type: in vivo, Heteranthera limosa
Procedure, shortened: as §2

rice = test: Test B flood test rice; type: in vivo, Oryza sativa
Procedure, shortened: as §2

crabgrass = test: Test B pre/postemergence crabgrass; type: in vivo, Digitaria sanguinalis
Procedure, shortened: as §1

bamyardgrass = test: Test B flood test barnyardgrass; type: in vivo, Echinochloa crus-galli
Procedure, shortened: as §2

sugar beet = test: Test B pre/postemergence sugar beet; type: in vivo, Beta vulgaris
Procedure, shortened: as §1

purple nutsedge = test: Test B pre/postemergence purple nutsedge; type: in vivo, Cyperus rotundus
Procedure, shortened: as §1

[1] = Postemergence, Rate 250 g/ha, scale 0 to 10
[2] = Postemergence, Rate 500 g/ha, scale of 0 to 10 where 0 is no effect and 10 is complete control
[3] = Preemergence, Rate 62 g/ha, scale of 0 to 10 where 0 is no effect and 10 is complete control
[4] = Preemergence, Rate 125 g/ha, scale of 0 to 10 where 0 is no effect and 10 is complete control
[5] = Preemergence, Rate 250 g/ha, scale 0 to 10, 0 is no effect, 10 is complete control
[6] = Preemergence, Rate 500 g/ha, scale 0 to 10, 0 is no effect, 10 is complete control
[7] = Rate 62 g/ha, Postemergence, scale 0 to 10 (0 no effect, 10 complete control)
[8] = Rate 125 g/ha, Postemergence, scale 0 to 10, 0 is no effect, 10 is complete control
[9] = Rate 62 g/ha, flood test species, Pre-emergence, visual evaluation after twelve to sixteen days
[10] = Rate 125 g/ha, under heading Pre-emergence, flood test species, visual evaluation after twelve to sixteen days
[11] = Rate 250 g/ha, Pre-emergence (flood test species), scale 0 to 10, 0 is no effect, 10 is complete control
[12] = Rate 500 g/ha, Pre-emergence, flood test species, scale 0 to 10 (0 no effect, 10 complete control)

CCc1nc(C)c(C(C)n2c(=O)on(C(=O)N(c3ccc(F)cc3)C(C)C)c2=O)s1 (stereo not shown) [Compound 449]
8: Giant foxtail plant response rating (giant foxtail; [5])
3: Rape plant response rating (rape; [2]) | Wheat plant response rating (wheat; [2]) | Blackgrass plant response rating (blackgrass; [6]) | Giant foxtail plant response rating (giant foxtail; [2]) | Plant response rating, Crabgrass (crabgrass; [4]) | Sugarbeets plant response rating (sugar beet; [2])
6: Plant response rating, Giant foxtail (giant foxtail; [4])
10: Giant foxtail plant response rating (giant foxtail; [6])
9: Crabgrass plant response rating (crabgrass; [5]) | Crabgrass plant response rating (crabgrass; [6])
2: Plant response rating, Giant foxtail (giant foxtail; [3]) | Crabgrass plant response rating (crabgrass; [1]) | Crabgrass plant response rating (crabgrass; [2])
0: Wild oats plant response rating (wild oat; [1]) | Plant response rating, Wild oats (wild oat; [3]) | Plant response rating, Wild oats (wild oat; [4]) | Wild oats plant response rating (wild oat; [5]) | Wild oats plant response rating (wild oat; [6]) | Wild oats plant response rating (wild oat; [7]) | Wild oats plant response rating (wild oat; [8]) | Rape plant response rating (rape; [1]) | Plant response rating, Rape (rape; [3]) | Plant response rating, Rape (rape; [4]) | Rape plant response rating (rape; [5]) | Rape plant response rating (rape; [6]) | Rape plant response rating (rape; [7]) | Rape plant response rating (rape; [8]) | Plant response rating, S. Flatsedge (0 to 10 scale, 0 is no effect, 10 is complete control) (smallflower flatsedge; [9]) | S. Flatsedge plant response rating (0 to 10 scale, 0 is no effect, 10 is complete control) (smallflower flatsedge; [10]) | S. Flatsedge plant response rating (smallflower flatsedge; [11]) | S. Flatsedge plant response rating (smallflower flatsedge; [12]) | Plant response rating, Bedstraw (bedstraw; Rate 62 g/ha) | Plant response rating, Bedstraw (bedstraw; Rate 125 g/ha) | Bedstraw plant response rating (bedstraw; Rate 250 g/ha) | Velvetleaf plant response rating (velvetleaf; [1]) | Velvetleaf plant response rating (velvetleaf; [2]) | Plant response rating, Velvetleaf (velvetleaf; [3]) | Plant response rating, Velvetleaf (velvetleaf; [4]) | Velvetleaf plant response rating (velvetleaf; [5]) | Velvetleaf plant response rating (velvetleaf; [6]) | Velvetleaf plant response rating (velvetleaf; [7]) | Velvetleaf plant response rating (velvetleaf; [8]) | Wheat plant response rating (wheat; [1]) | Plant response rating, Wheat (wheat; [3]) | Plant response rating, Wheat (wheat; [4]) | Wheat plant response rating (wheat; [5]) | Wheat plant response rating (wheat; [6]) | Wheat plant response rating (wheat; [7]) | Wheat plant response rating (wheat; [8]) | Corn plant response rating (corn; [1]) | Corn plant response rating (corn; [2]) | Plant response rating, Corn (corn; [3]) | Plant response rating, Corn (corn; [4]) | Corn plant response rating (corn; [5]) | Corn plant response rating (corn; [6]) | Corn plant response rating (corn; [7]) | Corn plant response rating (corn; [8]) | B. signalgrass plant response rating (surinam grass; Postemergence, Rate 250 g/ha, scale 0 to 10, 0 no effect, 10 complete control) | Plant response rating, B. signalgrass (surinam grass; [3]) | Plant response rating, B. signalgrass (surinam grass; [4]) | B. signalgrass plant response rating (surinam grass; [5]) | B. signalgrass plant response rating (surinam grass; [6]) | B. signalgrass plant response rating (surinam grass; [7]) | B. signalgrass plant response rating (surinam grass; [8]) | Blackgrass plant response rating (blackgrass; [1]) | Plant response rating, Blackgrass (blackgrass; Preemergence, Rate 62 g/ha) | Plant response rating, Blackgrass (blackgrass; Preemergence, Rate 125 g/ha) | Blackgrass plant response rating (blackgrass; [5]) | Blackgrass plant response rating (blackgrass; [7]) | Blackgrass plant response rating (blackgrass; [8]) | Giant foxtail plant response rating (giant foxtail; [1]) | Giant foxtail plant response rating (giant foxtail; [7]) | Giant foxtail plant response rating (giant foxtail; [8]) | Plant response rating, Ducksalad (0 to 10 scale, 0 is no effect, 10 is complete control) (duck salad; [9]) | Ducksalad plant response rating (0 to 10 scale, 0 is no effect, 10 is complete control) (duck salad; [10]) | Ducksalad plant response rating (duck salad; [11]) | Ducksalad plant response rating (duck salad; [12]) | Plant response rating, Rice (0 to 10 scale, 0 is no effect, 10 is complete control) (rice; [9]) | Rice plant response rating (0 to 10 scale, 0 is no effect, 10 is complete control) (rice; [10]) | Rice plant response rating (rice; [11]) | Rice plant response rating (rice; [12]) | Plant response rating, Crabgrass (crabgrass; [3]) | Crabgrass plant response rating (crabgrass; [7]) | Plant response rating, Barnyardgrass (0 to 10 scale, 0 is no effect, 10 is complete control) (bamyardgrass; [9]) | Barnyardgrass plant response rating (0 to 10 scale, 0 is no effect, 10 is complete control) (bamyardgrass; [10]) | Barnyardgrass plant response rating (bamyardgrass; [11]) | Barnyardgrass plant response rating (bamyardgrass; [12]) | Sugarbeets plant response rating (sugar beet; [1]) | Plant response rating, Sugarbeets (sugar beet; [3]) | Plant response rating, Sugarbeets (sugar beet; [4]) | Sugarbeets plant response rating (sugar beet; [5]) | Sugarbeets plant response rating (sugar beet; [6]) | Sugarbeets plant response rating (sugar beet; [7]) | Sugarbeets plant response rating (sugar beet; [8]) | Nutsedge plant response rating (purple nutsedge; [1]) | Nutsedge plant response rating (purple nutsedge; [2]) | Plant response rating, Nutsedge (purple nutsedge; [3]) | Plant response rating, Nutsedge (purple nutsedge; [4]) | Nutsedge plant response rating (purple nutsedge; [5]) | Nutsedge plant response rating (purple nutsedge; [6]) | Nutsedge plant response rating (purple nutsedge; [7]) | Nutsedge plant response rating (purple nutsedge; [8])
4: Wild oats plant response rating (wild oat; [2]) | Bedstraw plant response rating (bedstraw; Rate 500 g/ha) | B. signalgrass plant response rating (surinam grass; [2])
